Source: patent US8466177B2 (priority 2007, dated 2013)
Read-outs that look alike come from different tables or passages of the source.

Tests used:
B/Lee/40 (type B) = assay: microbe, parasite or virus in culture; assay type: cell-based; details: Influenza B virus, MDCK
A/Aichi/68 (H3N2) = assay: microbe, parasite or virus in culture; assay type: cell-based; details: Influenza A virus, H3N2, MDCK
[1] = test system: influenza virus (A/Udorn/72, H3N2); assay type: cell-based; details: 10 μM
A/Udorn/72, H3N2 = assay type: cell-based, influenza virus; details: 50 nM
[2] = test system: recombinant influenza virus hemagglutinin (A/Wyoming/3/03); assay type: biochemical; details: 5 μM
A/PR/8/34 (H1N1) = assay: microbe, parasite or virus in culture; assay type: cell-based; details: Influenza A virus, MDCK
A/Udorn/72 (H3N2) = assay: microbe, parasite or virus in culture; assay type: cell-based, influenza virus

| SMILES | EC50 (B/Lee/40 (type B)) [pM] | EC50 (A/Aichi/68 (H3N2)) [pM] | effect on membrane fusion [1] | virus yield, cell cultures treated after inoculation (A/Udorn/72, H3N2) | effect on HA stability (trypsin digestion) [2] | EC50 (A/PR/8/34 (H1N1)) [pM] | EC50 (A/Udorn/72 (H3N2)) [pM] | EC50 (A/Udorn/72 (H3N2); Influenza A virus, H3N2, MDCK) [pM] |
| --- | --- | --- | --- | --- | --- | --- | --- | --- |
| O=C1/C(=C/c2ccc(-c3ccc(F)cc3)o2)SC(=S)N1C1CCCCC1 [A1, (Z)-3-Cyclohexyl-5-{[5-(4-fluorophenyl)furan-2-yl]-methylene}-2-thioxothiazolidin-4-one] | 1000 | 1000 | inhibitory effects | decreased virus yield | destabilization effects | 600 | 400 | ≤ 400 |
| Cc1ccc(-c2ccc(/C=C3\SC(=S)N(C4CCCCCCC4)C3=O)o2)cc1 [A17, (Z)-3-cyclooctyl-5-{[(4-methylphenyl)furan-2-yl]methylene}-2-thioxothiazolidin-4-one] | – | – | – | decreased virus yield | – | – | – | – |
